Reference: patent US4395969A (priority 1981, dated 1983)

Legend:
crayfish = test: Long-term static bioassay, crayfish; conditions: 2 μg/l; one also missing in control
[1] = Static bioassay, lethal concentration to kokanee; type: in vivo, a land-locked subspecies of sockeye salmon; conditions: kokanee, water, 15 C
Description: (§1) Bioassays utilized water from an artesian well at Moscow, Idaho and from the headwaters of the Palouse River, also in Idaho. The chemical characteristics of the artesian water were analyzed as follows: Total hardness 67-120 mg/l; total dissolved solids, 160-175 mg/l; and pH 7.1. The chemistry of the Palouse River water was analyzed as follows: total hardness 17 mg/l; methyl orange alkalinity 26 mg/l; total dissolved solids, 32 mg/l and pH, 7.0.
(§2) Fish were acclimated to test temperatures, usually at 5, 7.5, 10, 15 and 20 degrees Celsius (C), at least 60 hours before exposure to toxicants. For fish and crayfish four water baths regulated the temperature of assay aquaria. Each water bath contained a battery of 20 identical 19-liter clear glass containers or 11.4-liter plastic aquaria lined with disposable polyethylene bags and covered with Plexiglass lids to reduce evaporation. For larger fish and large numbers of fish the bioassays were made in two temperature controlled rooms that contained a series of 700-liter circular fiberglass vats and a series of 76- and 91-liter plastic containers.
(§3) Standard bioassay techniques were used in sorting fish and conducting the tests. Fish were placed in aerated test aquaria overnight to permit fish to recover from stress due to handling and to deprive them of food. The average load varied but most bioassays were conducted with about 1 g of fish per liter of water.
(§4) Aliquots of organophosphates were dissolved in ethanol and dispensed to the aquaria to provide concentrations suitable for obtaining the LC0 and LC50 of desirable fish and the LC50 and LC100 of target fish. Control fish were conditioned in the same manner as the test fish, but no chemical was added to the control vessels during the assays. After the addition of a chemical, observations were made mainly at 3, 6, 12, 24, 48, 96, and 192 h. The weight and fork length of fish were obtained when fishes were sacrificed.
(§5) Delineation bioassays determined primarily the LC50 and LC100 of sucker and stickleback and the LC0 and LC50 of salmonids.
(§6) The statistical LC1, LC50, and LC99 were interpolated and/or extrapolated using probit graph paper to approximate the LC0, LC50, and LC100 when the latter set of values was not closely determined by single concentrations in a series.
(§7) Threespine stickleback, brook stickleback, bridgelip sucker, white sucker, chinook salmon, coho salmon, sockeye salmon, kokanee, Kamloops trout, cutthroat trout, and brook trout were treated with various concentrations of 2, 2, 2, 1-tetrachloroethyl diethyl phosphate and at various temperatures to determine approximate selectivity and safety indices. The approximate LC50 and LC100 of the target fishes (threespine and brook sticklebacks and bridgelip and white suckers) are tabulated in Table 5. The 96-hour selectivity and safety indices of selected species of salmonids versus the threespine stickleback are tabulated in Table 7.

kokanee = test: Static bioassay, lethal concentration to kokanee; type: in vivo, a land-locked subspecies of sockeye salmon; conditions: 15 C
Description: as §1, §2, §3, §4, §5, §6, §7

stickleback = test: Control of stickleback in 24-hour applications, usable concentration; type: in vivo; conditions: for recommended safe and effective concentration: river water tests
Excerpt: For field applications the concentration of the dichloro- and tetrachloro-compounds would vary with water quality--mainly with regard to water temperature and hydrogen ion concentrations. Generally, treated areas would contain water low in dissolved solids and a pH of 7 to 7.5. The activity of the chemicals would then be essentially similar to that determined in our tests using river water. For the treatment of rivers and shorelines of lakes the concentrations of the dichloro- and tetrachloro-compounds that would be used would be those that would kill stickleback or suckers in 12 to 24 hours. The information above, relating to Examples 1 and 12, substantiates improvement in fish culture by the addition of dichloroethyl or dichlorovinyl diethyl phosphate to an aqueous habitat at a concentration in water ranging between 0.1 and 10 mg/l. […] The information above, relating to Example 2, substantiates improvement in fish culture by the addition of tetrachloroethyl diethyl phosphate to an aqueous habitat at a concentration in water ranging between 4 and 80 μg/l.

chinook salmon = conditions: chinook salmon, in vivo, 96 h
[2] = Half-life in river water with or without river mud, measured by bioassay with stickleback; type: physicochemical; conditions: river water with layer of river mud; 15 C
Description: The rate of deactivation was measured by bioassay with stickleback and the data were analyzed by conventional methods.

longnose sucker = test: Exploratory bioassay, longnose sucker; type: in vivo, C. catastomus; conditions: less than 24 h; 15 C; 47 to 61 mm
Description: Cursory bioassays were made with small numbers of other fishes and a crayfish (Pacifasticus klamathensis) to check on the universal selectivity of the toxicants. The fishes included Arctic grayling (Thymallus arcticus), longnose sucker (C. catastomus), largescale sucker, (C. macrocheilus), and spotted sucker (Minytrema melanops).
A series of 24-hour bioassays was made with the longnose sucker (1 fish per aquarium) at a concentration range of 0.1 mg/l to 4.5 mg/l of 2, 2-dichlorovinyl diethyl phosphate. The chemical killed the longnose sucker (47 to 61 mm) at a concentration of 0.2 mg/l and higher in less than 24 hours at 15 C.
Three longnose suckers (about 125 mm) and three Arctic grayling (about 125 mm) were exposed to 10 μg/l of 2, 2, 2, 1-tetrachloroethyl diethyl phosphate. The suckers died between 14 and 22 hours at 13 C. The grayling were not affected in 48-hour biassays.

| SMILES | crayfish missing (crayfish) | LC50 at 48 h ([1]; 48 h) [µg/mL] | LC50 at 96 h ([1]; 96 h) [µg/mL] | LC50 at 192 h ([1]; 192 h) [µg/mL] | LC0 (kokanee; 48 h) [µg/L] | LC0 (kokanee; 96 h) [µg/L] | LC0 (kokanee; 192 h) [µg/L] | recommended safe and effective concentration (stickleback; 10 C) [mg/L] | recommended safe and effective concentration (stickleback; 15 C) [mg/L] | concentrations for control (upper: greater than) (stickleback; Kamloops, 10 C, 24 h or less, river water) | LC50 (chinook salmon) [µg/mL] | half-life [2] [days] | concentration that killed longnose sucker (longnose sucker) [mg/L] |
| --- | --- | --- | --- | --- | --- | --- | --- | --- | --- | --- | --- | --- | --- |
| CCOP(=O)(OCC)OC(Cl)C(Cl)(Cl)Cl (stereo not shown) [2,2,2,1-tetrachloroethyl diethyl phosphate] | one | 0.04 | 0.03 | 0.027 | 30 | 20 | 20 |  |  |  |  |  |  |
| CCOP(=O)(OC=C(Cl)Cl)OCC [2,2-dichlorovinyl diethyl phosphate] |  |  |  |  |  |  |  | 5 | 3 | 4-4 mg/l | 3.4 | 15 | ≥ 0.2 |
